What follows are compounds tested against T1, human PD-L1 / human PD-1 interaction (Homo sapiens, UniProt Q9NZQ7) (assay: ELISA of PD-1/PD-L1 interaction).
T1 construct: purchased R&D (PD-L1); ACRO Biosystems (PD-1, biotin)
T1 sequence (Q9NZQ7 19-239 limits assumed): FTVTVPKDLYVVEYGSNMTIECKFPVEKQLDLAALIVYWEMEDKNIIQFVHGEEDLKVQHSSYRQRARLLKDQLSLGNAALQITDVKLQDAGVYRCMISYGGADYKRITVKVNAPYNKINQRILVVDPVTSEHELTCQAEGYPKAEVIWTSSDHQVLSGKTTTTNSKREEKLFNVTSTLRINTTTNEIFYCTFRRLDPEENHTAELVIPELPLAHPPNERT
Type: binding
Summary of the method: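 Plates coated with 1 μg/mL human PD-L1 and blocked with BSA; serially diluted (1:5) compounds plus biotinylated human PD-1 (0.3 μg/mL) incubated 1 h at 37° C. Bound PD-1 detected with streptavidin-HRP/TMB, absorbance at 450 nm.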
For `Cc1c(OCCCN2CCCC2(C)C)cccc1-c1cccc2c1CC[C@@H]2Oc1cc(OCc2cc(C#N)cc(C#N)c2)c(CN[C@H]2CCC(=O)NC2)cc1Cl`, the IC50 was under 5 nM.
Work on `Cc1c(OCCCN2CCC(F)CC2)cccc1-c1cccc2c1CC[C@@H]2Oc1cc(OCc2cc(C#N)cc(C#N)c2)c(CN[C@@H]2CCC(=O)NC2)cc1Cl` yielded an IC50 of under 5 nM.
For `N#Cc1cncc(COc2cc(O[C@H]3CCc4c(-c5cccc(OCCCN6CCC6)c5Cl)cccc43)c(Cl)cc2CNC[C@H]2CCC(=O)N2)c1`, the IC50 was under 5 nM.
`Cc1c(OCCCN2CCC(O)CC2)cccc1-c1cccc2c1CC[C@@H]2Oc1cc(OCc2cc(C#N)cc(C#N)c2)c(CN[C@H](C(=O)O)[C@@H](C)O)cc1Cl` was tested, and the IC50 was under 5 nM.
Compound `CCN1CCC(COc2cccc(-c3cccc4c3CC[C@@H]4Oc3cc(OCc4cncc(C#N)c4)c(CN[C@H]4CCC(=O)NC4)cc3Cl)c2Cl)C1` (some centres unmarked) has an IC50 of under 5 nM.
Compound `N#Cc1cncc(COc2cc(O[C@H]3CCc4c(-c5cccc(OCCCN6CC(O)C6)c5Cl)cccc43)c(Cl)cc2CN[C@@H]2CCCC[C@@H]2O)c1` has an IC50 of under 5 nM.
`Cc1c(OCCCN2CCC(CO)CC2)cccc1-c1cccc2c1CC[C@@H]2Oc1cc(OCc2cncc(C#N)c2)c(CN[C@H](C(=O)O)[C@@H](C)O)cc1Cl` showed an IC50 of under 5 nM.
Compound `CN1CCC(COc2cccc(-c3cccc4c3CC[C@@H]4Oc3cc(OCc4cncc(C#N)c4)c(CNC[C@H]4CCC(=O)N4)cc3Cl)c2Cl)C1` (some centres unmarked) has an IC50 of under 5 nM.
For `CC1(O)CN(CCCOc2cccc(-c3cccc4c3CC[C@@H]4Oc3cc(OCc4cncc(C#N)c4)c(CN[C@@](C)(CO)C(=O)O)cc3Cl)c2Cl)C1`, the IC50 was under 5 nM.
With `Cc1c(OCCCN2CCC(F)CC2)cccc1-c1cccc2c1CC[C@@H]2Oc1cc(OCc2cc(C#N)cc(C#N)c2)c(CNC2CCNC(=O)C2)cc1Cl` (some centres unmarked) the IC50 was under 5 nM.
Compound `N#Cc1cncc(COc2cc(O[C@H]3CCc4c(-c5cccc(OCCCN6CC(O)C6)c5Cl)cccc43)c(Cl)cc2CNC[C@@H]2CCC(=O)N2)c1` has an IC50 of under 5 nM.
In the case of `N#Cc1cncc(COc2cc(O[C@H]3CCc4c(-c5cccc(OCCCN6CCC6)c5Cl)cccc43)c(Cl)cc2CN[C@@H]2CCCC[C@@H]2O)c1`, the IC50 is reported as under 5 nM.
`Cc1c(OCCCN2CCC(F)CC2)cccc1-c1cccc2c1CC[C@@H]2Oc1cc(OCc2cncc(C#N)c2)c(CNCC2CCC(=O)N2)cc1Cl` (some centres unmarked) showed an IC50 of under 5 nM.
In the case of `Cc1c(OCCCN2CCC(C)(O)CC2)cccc1-c1cccc2c1CC[C@@H]2Oc1cc(OCc2cc(C#N)cc(C#N)c2)c(CNC[C@@H]2CCC(=O)N2)cc1Cl`, the IC50 is reported as under 5 nM.
Compound `Cc1c(OCCCN2CCC(F)CC2)cccc1-c1cccc2c1CC[C@@H]2Oc1cc(OCc2cncc(C#N)c2)c(CNC[C@@H]2CCC(=O)N2)cc1Cl` has an IC50 of under 5 nM.
`N#Cc1cncc(COc2cc(O[C@H]3CCc4c(-c5cccc(OCCCN6CCC(F)CC6)c5Cl)cccc43)c(Cl)cc2CNC[C@H]2CCC(=O)N2)c1` showed an IC50 of under 5 nM.
With `CCOc1cc(O[C@H]2CCc3c(-c4cccc(OCCCN5CCCC5(C)C)c4C)cccc32)c(Cl)cc1CNC[C@@H]1CCC(=O)N1` the IC50 was under 5 nM.
`Cc1c(OCCCN2CCC(C)CC2)cccc1-c1cccc2c1CC[C@@H]2Oc1cc(OCc2cc(C#N)cc(C#N)c2)c(CNC[C@H]2CCC(=O)N2)cc1Cl` gave an IC50 of under 5 nM.
Compound `N#Cc1cncc(COc2cc(O[C@H]3CCc4c(-c5cccc(OCCCN6CC(O)C6)c5Cl)cccc43)c(Cl)cc2CN2CC[C@@H](O)C2)c1` has an IC50 of under 5 nM.
`N#Cc1cncc(COc2cc(O[C@H]3CCc4c(-c5cccc(OCCCN6CCC(F)CC6)c5Cl)cccc43)c(Cl)cc2CN[C@H]2CCOC[C@H]2O)c1` showed an IC50 of under 5 nM.
With `C[C@@](CO)(NCc1cc(Cl)c(OC2CCc3c(-c4cccc(OCCCN5CC(O)C5)c4Cl)cc(F)cc32)cc1OCc1cncc(C#N)c1)C(=O)O` (some centres unmarked) the IC50 was under 5 nM.
For `N#Cc1cncc(COc2cc(O[C@H]3CCc4c(-c5cccc(OCCCN6CCC(F)CC6)c5Cl)cccc43)c(Cl)cc2CN[C@@H]2CCC[C@H]2O)c1`, the IC50 was under 5 nM.
In the case of `CCOc1cc(O[C@H]2CCc3c(-c4cccc(OCCCN5CC[C@@H](O)C5)c4C)cccc32)c(Cl)cc1CNC(C)(CO)C(=O)O` (some centres unmarked), the IC50 is reported as under 5 nM.
Work on `N#Cc1cncc(COc2cc(O[C@H]3CCc4c(-c5cccc(OCCCN6CC7(C6)CC(F)(F)C7)c5Cl)cccc43)c(Cl)cc2CN[C@@H]2CCCC[C@@H]2O)c1` yielded an IC50 of under 5 nM.
Work on `CCOc1cc(O[C@H]2CCc3c(-c4cccc(OCCCN5CCC5(C)C)c4C)cccc32)c(Cl)cc1CNCCO` yielded an IC50 of under 5 nM.
`Cc1c(OCCCN2C3CCC2CC(O)C3)cccc1-c1cccc2c1CC[C@@H]2Oc1cc(OCc2cncc(C#N)c2)c(CNCC2CCC(=O)N2)cc1Cl` (some centres unmarked) gave an IC50 of under 5 nM.
Work on `N#Cc1cncc(COc2cc(O[C@H]3CCc4c(-c5cccc(OCCCN6CC7(CC(F)C7)C6)c5Cl)cccc43)c(Cl)cc2CN[C@H]2CC[C@@H]2O)c1` yielded an IC50 of under 5 nM.
With `Cc1c(OCCCN2CCC(O)CC2)cccc1-c1cccc2c1CC[C@@H]2Oc1cc(OCc2cncc(C#N)c2)c(CN[C@@H](CNC(=N)N)C(=O)O)cc1Cl` the IC50 was under 5 nM.
`Cc1c(OCCCN2CCC(O)CC2)cccc1-c1cccc2c1CC[C@@H]2Oc1cc(OCc2cncc(C#N)c2)c(CN[C@@H]2CCCC[C@H]2O)cc1Cl` was tested, and the IC50 was under 5 nM.
Work on `N#Cc1cncc(COc2cc(O[C@H]3CCc4c(-c5cccc(OCCCN6CCC(O)CC6)c5Cl)cccc43)c(Cl)cc2CNCC2CCC(=O)N2)c1` (some centres unmarked) yielded an IC50 of under 5 nM.
For `CCOc1cc(O[C@H]2CCc3c(-c4cccc(OCCCN5CCC(O)CC5)c4C)cccc32)c(Cl)cc1CN[C@@H](CO)C(=O)O`, the IC50 was under 5 nM.
Compound `Cc1c(OCCCN2[C@H](C)CC[C@H]2C)cccc1-c1cccc2c1CC[C@@H]2Oc1cc(OCc2cc(C#N)cc(C#N)c2)c(CN[C@H]2CCC(=O)NC2)cc1Cl` has an IC50 of under 5 nM.
Compound `Cc1c(OCCCN2CCC(O)CC2)cccc1-c1cccc2c1CC[C@@H]2Oc1cc(OCc2cc(C#N)cc(C#N)c2)c(CN[C@@H](CO)C(=O)O)cc1Cl` has an IC50 of under 5 nM.
With `Cc1c(OCCCN2CCCCC2)cccc1-c1cccc2c1CC[C@@H]2Oc1cc(OCc2cc(C#N)cc(C#N)c2)c(CN[C@@H]2CCCC[C@@H]2O)cc1Cl` the IC50 was under 5 nM.
`CC1(O)CN(Cc2cc(Cl)c(O[C@H]3CCc4c(-c5cccc(OCCCN6CCC(F)CC6)c5Cl)cccc43)cc2OCc2cncc(C#N)c2)C1` was tested, and the IC50 was under 5 nM.
Work on `CCOc1cc(O[C@H]2CCc3c(-c4cccc(OCCCN(C)C(C)C)c4C)cccc32)c(Cl)cc1CNC[C@@H]1CCC(=O)N1` yielded an IC50 of under 5 nM.
`N#Cc1cncc(COc2cc(O[C@H]3CCc4c(-c5cccc(OCCCN6CC7(CC(F)C7)C6)c5Cl)cccc43)c(Cl)cc2CN[C@@H]2CCC[C@H]2O)c1` gave an IC50 of under 5 nM.
Work on `Cc1c(OCCCN2CCCCC2)cccc1-c1cccc2c1CC[C@@H]2Oc1cc(OCc2cc(C#N)cc(C#N)c2)c(CNC[C@H]2CCC(=O)N2)cc1Cl` yielded an IC50 of under 5 nM.
`N#Cc1cncc(COc2cc(O[C@H]3CCc4c(-c5cccc(OCCCN6CC(O)C6)c5Cl)cccc43)c(Cl)cc2CNCC(=O)O)c1` showed an IC50 of under 5 nM.
`CC(CO)(NCc1cc(Cl)c(O[C@H]2CCc3c(-c4cccc(OCCCN5CC(F)C5)c4Cl)cccc32)cc1OCc1cncc(C#N)c1)C(=O)O` (some centres unmarked) gave an IC50 of under 5 nM.
`Cc1c(OCCCN2CCC(O)CC2)cccc1-c1cccc2c1C[C@H](F)[C@@H]2Oc1cc(OCc2cncc(C#N)c2)c(CN[C@@](C)(CO)C(=O)O)cc1Cl` showed an IC50 of under 5 nM.
With `CCOc1cc(O[C@H]2CCc3c(-c4cccc(OCCCN5CCC5(C)C)c4C)cccc32)c(Cl)cc1CNC[C@@H]1CCC(=O)N1` the IC50 was under 5 nM.
With `Cc1c(OCCCN2CCC(C)CC2)cccc1-c1cccc2c1CC[C@@H]2Oc1cc(OCc2cc(C#N)cc(C#N)c2)c(CNC[C@@H]2CCC(=O)N2)cc1Cl` the IC50 was under 5 nM.
Work on `N#Cc1cncc(COc2cc(O[C@H]3CCc4c(-c5cccc(OCCCN6CC7(CC(O)C7)C6)c5Cl)cccc43)c(Cl)cc2CN[C@@H]2CCCC[C@@H]2O)c1` yielded an IC50 of under 5 nM.
`CC(CO)(NCc1cc(Cl)c(O[C@H]2CCc3c(-c4cccc(OCCCN5CC6(CC(O)C6)C5)c4Cl)cccc32)cc1OCc1cncc(C#N)c1)C(=O)O` (some centres unmarked) was tested, and the IC50 was under 5 nM.
`Cc1c(OCCCN2CCC(O)CC2)cccc1-c1cccc2c1CC[C@@H]2Oc1cc(OCc2cc(C#N)cc(C#N)c2)c(CN[C@@](C)(CO)C(=O)O)cc1Cl` gave an IC50 of under 5 nM.
Work on `N#Cc1cncc(COc2cc(O[C@H]3CCc4c(-c5cccc(OCCCN6CC(O)C6)c5Cl)cccc43)c(Cl)cc2CN2CC3(CC(O)C3)C2)c1` yielded an IC50 of under 5 nM.
In the case of `CN(Cc1cc(Cl)c(O[C@H]2CCc3c(-c4cccc(OCCCN5CC(O)C5)c4Cl)cccc32)cc1OCc1cncc(C#N)c1)[C@@](C)(CO)C(=O)O`, the IC50 is reported as under 5 nM.
`Cc1c(OCCCN2CCC(O)CC2)cccc1-c1cccc2c1CC[C@@H]2Oc1cc(OCCCN2CC[C@@H](O)C2)c(CN[C@@H]2CCCC[C@@H]2O)cc1Cl` gave an IC50 of under 5 nM.
Compound `C[C@@](CO)(NCc1cc(Cl)c(O[C@@H]2c3cccc(-c4cccc(OCCCN5CC(O)C5)c4Cl)c3C[C@@H]2F)cc1OCc1cc(C#N)cc(C#N)c1)C(=O)O` has an IC50 of under 5 nM.
Compound `Cc1c(OCCCN2CC3(CC(O)C3)C2)cccc1-c1cccc2c1CC[C@@H]2Oc1cc(OCc2cc(C#N)cc(C#N)c2)c(CNC[C@H]2CCC(=O)N2)cc1Cl` has an IC50 of under 5 nM.
With `CC1(F)CCN(CCCOc2cccc(-c3cccc4c3CC[C@@H]4Oc3cc(OCc4cncc(C#N)c4)c(CN[C@@H]4CCCC[C@@H]4O)cc3Cl)c2Cl)CC1` the IC50 was under 5 nM.
`Cc1c(OCCCN2CC(C)(C)C2)cccc1-c1cccc2c1CC[C@@H]2Oc1cc(OCc2cc(C#N)cc(C#N)c2)c(CN[C@H]2CCC(=O)NC2)cc1Cl` was tested, and the IC50 was under 5 nM.
`C[C@@H](O)[C@H](NCc1cc(Cl)c(O[C@H]2CCc3c(-c4cccc(OCCCN5CCC(F)CC5)c4Cl)cccc32)cc1OCc1cncc(C#N)c1)C(=O)NS(C)(=O)=O` was tested, and the IC50 was under 5 nM.
`N#Cc1cncc(COc2cc(O[C@H]3CCc4c(-c5cccc(OCCCN6CC7(CC(O)C7)C6)c5Cl)cccc43)c(Cl)cc2CNC[C@@H]2CCC(=O)N2)c1` was tested, and the IC50 was under 5 nM.
Compound `C[C@@H](O)[C@H](NCc1cc(Cl)c(O[C@H]2CCc3c(-c4cccc(OCCCN5CCC(O)CC5)c4Cl)cccc32)cc1OCc1cncc(C#N)c1)C(N)=O` has an IC50 of under 5 nM.
`C[C@@](CO)(NCc1cc(Cl)c(O[C@@H]2c3cccc(-c4cccc(OCCCN5CC(F)C5)c4Cl)c3C[C@@H]2F)cc1OCc1cncc(C#N)c1)C(=O)O` showed an IC50 of under 5 nM.
`CC(C)(O)[C@H](NCc1cc(Cl)c(O[C@H]2CCc3c(-c4cccc(OCCCN5CCC(F)CC5)c4Cl)cccc32)cc1OCc1cncc(C#N)c1)C(=O)O` showed an IC50 of under 5 nM.
Compound `N#Cc1cncc(COc2cc(O[C@H]3CCc4c(-c5cccc(OCCCN6CCC(F)CC6)c5Cl)cccc43)c(Cl)cc2CN[C@@H]2CCC[C@@H]2O)c1` has an IC50 of under 5 nM.

From patent publication US20210236476A1, “METHODS OF TREATING CANCER WITH SMALL MOLECULE PD-L1 INHIBITORS” (CHEMOCENTRYX, INC., priority 2018, published 2021)
